This note sets out measurements from patent publication US9630963B2, “Quinolone derivatives as fibroblast growth factor inhibitors” (Principia Biopharma, Inc., priority 2013, dated 2017).

The target of one experiment is human recombinant FGFR1 (Homo sapiens, UniProt P11362). The experiment is described as follows: FGFR family enzymatic activity assay (Caliper-based kinase assay), FGFR1. The experiment is classed as biochemical. As to conditions: FGFR1 0.5 nM, ATP 100 μM, peptide substrate 1 μM, room temperature 3 h. From the text: (§1) A Caliper-based kinase assay (Caliper Life Sciences, Hopkinton, Mass.) was used to measure inhibition of FGFR family (FGFR1, FGFR2, FGFR3, FGFR4) kinase activity of a compound of Formula (I′) or (I). […] This value is presented as the IC50.

A further experiment addresses human recombinant FGFR2 (Homo sapiens, UniProt P21802). The experiment is described as follows: FGFR family enzymatic activity assay (Caliper-based kinase assay), FGFR2. The experiment is classed as biochemical. Particulars: FGFR2 0.1 nM, ATP 75 μM, peptide substrate 1 μM, room temperature 3 h.
Source text: as §1

The target in another experiment is human recombinant FGFR3 (Homo sapiens, UniProt P22607). The experiment is described as follows: FGFR family enzymatic activity assay (Caliper-based kinase assay), FGFR3. The experiment is classed as biochemical. As to conditions: FGFR3 0.9 nM, ATP 120 μM, peptide substrate 1 μM, room temperature 3 h.
Source text: as §1

A further experiment addresses human recombinant FGFR4 (Homo sapiens, UniProt P22455). The experiment is described as follows: FGFR family enzymatic activity assay (Caliper-based kinase assay), FGFR4. The experiment is classed as biochemical. Particulars: FGFR4 2 nM, ATP 250 μM, peptide substrate 1 μM, room temperature 3 h.
Source text: as §1

A further experiment has as its system SNU-16 cells. The experiment is described as follows: Inhibition of FGFR2-dependent cell growth (Cell-titer Glo). The experiment is classed as cell-based. Particulars: Homo sapiens, SNU16 cells, 72 hrs incubation, cell viability by Cell-titer Glo. On the procedure: The cell-based effects of FGFR inhibitors were determined by measuring inhibition of FGFR-dependent cell line growth. […] Percent inhibition of cell growth was calculated as a percentage of untreated cell viability. The percent inhibition was plotted as a function of log compound concentration. The IC50 was then calculated for each compound using Prism software from GraphPad.

human recombinant FGFR3, sequence (P22607 23-806): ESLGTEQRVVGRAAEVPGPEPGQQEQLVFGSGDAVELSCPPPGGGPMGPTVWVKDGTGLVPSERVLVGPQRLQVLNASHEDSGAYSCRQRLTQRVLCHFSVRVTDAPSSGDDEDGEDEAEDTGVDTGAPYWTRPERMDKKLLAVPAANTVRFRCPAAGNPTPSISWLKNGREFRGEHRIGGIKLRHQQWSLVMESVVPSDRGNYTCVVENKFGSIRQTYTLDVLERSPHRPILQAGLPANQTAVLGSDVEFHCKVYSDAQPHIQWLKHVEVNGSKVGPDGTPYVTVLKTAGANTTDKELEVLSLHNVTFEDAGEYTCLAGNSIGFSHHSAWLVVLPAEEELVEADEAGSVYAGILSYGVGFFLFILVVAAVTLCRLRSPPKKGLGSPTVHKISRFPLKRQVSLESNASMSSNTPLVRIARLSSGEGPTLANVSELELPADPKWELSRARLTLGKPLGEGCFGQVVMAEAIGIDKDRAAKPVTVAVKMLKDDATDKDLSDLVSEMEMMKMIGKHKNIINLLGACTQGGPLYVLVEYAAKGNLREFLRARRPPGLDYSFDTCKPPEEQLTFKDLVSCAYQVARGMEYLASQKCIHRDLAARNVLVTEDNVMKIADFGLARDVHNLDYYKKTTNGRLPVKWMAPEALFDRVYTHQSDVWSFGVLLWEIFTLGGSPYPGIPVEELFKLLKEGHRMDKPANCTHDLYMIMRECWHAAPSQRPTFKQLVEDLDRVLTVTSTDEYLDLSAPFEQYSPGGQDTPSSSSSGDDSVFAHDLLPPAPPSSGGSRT
human recombinant FGFR4, sequence (P22455 22-802): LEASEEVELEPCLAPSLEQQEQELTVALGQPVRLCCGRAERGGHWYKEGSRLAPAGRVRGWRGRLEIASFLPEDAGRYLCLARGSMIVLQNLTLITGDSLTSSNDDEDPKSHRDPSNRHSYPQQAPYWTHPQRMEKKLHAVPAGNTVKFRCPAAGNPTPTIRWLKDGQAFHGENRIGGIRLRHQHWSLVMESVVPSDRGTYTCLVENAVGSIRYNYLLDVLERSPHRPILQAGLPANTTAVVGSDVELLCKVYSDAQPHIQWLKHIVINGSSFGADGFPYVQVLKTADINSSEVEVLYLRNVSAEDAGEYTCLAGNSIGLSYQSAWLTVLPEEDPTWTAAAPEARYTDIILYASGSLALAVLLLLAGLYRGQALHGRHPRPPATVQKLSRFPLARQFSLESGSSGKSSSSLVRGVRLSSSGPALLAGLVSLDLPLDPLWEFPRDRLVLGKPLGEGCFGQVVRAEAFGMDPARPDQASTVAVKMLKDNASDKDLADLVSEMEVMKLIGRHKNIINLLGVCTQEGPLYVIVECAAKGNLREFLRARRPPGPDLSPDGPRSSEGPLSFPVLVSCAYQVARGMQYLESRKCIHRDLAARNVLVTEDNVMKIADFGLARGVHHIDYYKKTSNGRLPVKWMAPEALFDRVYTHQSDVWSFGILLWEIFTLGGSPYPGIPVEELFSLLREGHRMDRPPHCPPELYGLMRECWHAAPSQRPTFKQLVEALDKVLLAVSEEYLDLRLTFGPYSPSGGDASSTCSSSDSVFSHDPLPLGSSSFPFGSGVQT
human recombinant FGFR1, sequence (P11362 22-822): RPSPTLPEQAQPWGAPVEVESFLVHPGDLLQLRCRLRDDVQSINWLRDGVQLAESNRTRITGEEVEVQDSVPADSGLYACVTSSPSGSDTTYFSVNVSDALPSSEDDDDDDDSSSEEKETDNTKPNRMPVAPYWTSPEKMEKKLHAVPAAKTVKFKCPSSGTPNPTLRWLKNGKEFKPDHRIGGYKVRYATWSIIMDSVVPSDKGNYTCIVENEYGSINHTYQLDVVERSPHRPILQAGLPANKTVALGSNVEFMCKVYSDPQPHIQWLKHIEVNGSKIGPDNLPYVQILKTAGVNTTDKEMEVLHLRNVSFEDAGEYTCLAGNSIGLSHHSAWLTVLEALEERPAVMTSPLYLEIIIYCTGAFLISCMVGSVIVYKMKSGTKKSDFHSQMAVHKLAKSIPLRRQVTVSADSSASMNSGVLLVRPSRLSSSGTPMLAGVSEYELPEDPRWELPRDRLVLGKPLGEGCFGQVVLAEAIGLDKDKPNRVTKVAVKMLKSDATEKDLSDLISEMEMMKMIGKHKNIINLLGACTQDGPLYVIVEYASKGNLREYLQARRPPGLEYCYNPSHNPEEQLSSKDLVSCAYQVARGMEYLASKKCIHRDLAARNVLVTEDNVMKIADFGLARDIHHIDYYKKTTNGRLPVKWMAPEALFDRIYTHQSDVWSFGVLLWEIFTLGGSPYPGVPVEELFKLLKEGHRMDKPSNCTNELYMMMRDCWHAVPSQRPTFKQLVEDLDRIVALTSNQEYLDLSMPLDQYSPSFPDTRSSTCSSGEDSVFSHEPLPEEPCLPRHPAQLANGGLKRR
human recombinant FGFR2, sequence (P21802 22-821): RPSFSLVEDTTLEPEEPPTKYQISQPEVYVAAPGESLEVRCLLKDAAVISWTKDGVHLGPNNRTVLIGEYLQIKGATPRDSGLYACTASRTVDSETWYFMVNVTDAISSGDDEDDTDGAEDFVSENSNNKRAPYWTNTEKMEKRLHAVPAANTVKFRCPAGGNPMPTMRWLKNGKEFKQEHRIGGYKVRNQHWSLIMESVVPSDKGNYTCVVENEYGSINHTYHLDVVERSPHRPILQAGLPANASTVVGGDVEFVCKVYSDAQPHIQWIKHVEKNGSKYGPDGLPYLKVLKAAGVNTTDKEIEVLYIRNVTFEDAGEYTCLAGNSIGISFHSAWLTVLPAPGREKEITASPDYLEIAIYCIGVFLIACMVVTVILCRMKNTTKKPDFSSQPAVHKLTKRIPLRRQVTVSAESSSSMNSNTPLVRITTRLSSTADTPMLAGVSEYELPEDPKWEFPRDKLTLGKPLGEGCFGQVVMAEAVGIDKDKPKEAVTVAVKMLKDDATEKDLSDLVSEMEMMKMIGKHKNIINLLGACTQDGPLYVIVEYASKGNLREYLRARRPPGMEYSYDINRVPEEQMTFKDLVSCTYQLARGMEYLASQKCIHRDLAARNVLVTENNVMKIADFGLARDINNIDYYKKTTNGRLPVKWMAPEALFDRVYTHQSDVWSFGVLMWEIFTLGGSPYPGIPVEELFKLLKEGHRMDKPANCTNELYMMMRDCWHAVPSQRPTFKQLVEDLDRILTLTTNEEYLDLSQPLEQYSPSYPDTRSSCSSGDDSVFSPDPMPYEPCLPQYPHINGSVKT

With `C=CC(=O)Nc1ccc(CCn2c(=O)c(-c3c(Cl)c(OC)cc(OC)c3Cl)cc3cnc(NCC4CCN(C)CC4)nc32)cc1` [Example 75, N-(4-(2-(6-(2,6-dichloro-3,5-dimethoxyphenyl)-2-(((1-methylpiperidin-4-yl)methyl)-amino)-7-oxopyrido[2,3-d]pyrimidin-8(7H)-yl)ethyl)phenyl)acrylamide], the IC50 was 0.4 nM on human recombinant FGFR1; 0.6 nM on human recombinant FGFR2; 3.3 nM on human recombinant FGFR3; 14.7 nM at human recombinant FGFR4; 2.2 nM in the experiment on SNU-16 cells.
The matching figures for `C=CC(=O)Nc1ccc(CCn2c(=O)c(-c3c(Cl)c(OC)cc(OC)c3Cl)cc3cnc(NCCN4CCOCC4)nc32)cc1` [Example 44, N-(4-(2-(6-(2,6-dichloro-3,5-dimethoxyphenyl)-2-((2-morpholinoethyl)amino)-7-oxopyrido[2,3-d]pyrimidin-8(7H)-yl)ethyl)phenyl)acrylamide]: 1 nM, 2.5 nM, 4 nM, 14 nM and 3.1 nM.
The matching figures for `C=CC(=O)Nc1ccc(CCn2c(=O)c(-c3cc(OC)cc(OC)c3Cl)cc3cnc(NCCN4CCN(CC(C)(C)O)CC4)nc32)cc1` [Example 68, N-(4-(2-(6-(2-chloro-3,5-dimethoxyphenyl)-2-((2-(4-(2-hydroxy-2-methylpropyl)-piperazin-1-yl)ethyl)amino)-7-oxopyrido[2,3-d]pyrimidin-8(7H)-yl)ethyl)phenyl)acrylamide]: 0.7 nM, 1.6 nM, 8.1 nM, 53.8 nM and 3.1 nM.
The matching figures for `C=CC(=O)Nc1ccc(CCn2c(=O)c(-c3cc(OC)cc(OC)c3Cl)cc3cnc(NC(C)(C)CO)nc32)cc1` [Example 61, N-(4-(2-(6-(2-chloro-3,5-dimethoxyphenyl)-2-((1-hydroxy-2-methylpropan-2-yl)-amino)-7-oxopyrido[2,3-d]pyrimidin-8(7H)-yl)ethyl)phenyl)acrylamide]: 1.5 nM, 3.4 nM, 9.2 nM, 64.4 nM and 6.8 nM.
`C=CC(=O)Nc1ccc(CCn2c(=O)c(-c3c(Cl)c(OC)cc(OC)c3Cl)cc3cnc(NCCO)nc32)cc1` [Example 65, N-(4-(2-(6-(2,6-dichloro-3,5-dimethoxyphenyl)-2-((2-hydroxyethyl)amino)-7-oxopyrido[2,3-d]pyrimidin-8(7H)-yl)ethyl)phenyl)acrylamide]: the IC50 at human recombinant FGFR1 was 0.6 nM; on human recombinant FGFR2, 1.7 nM; on human recombinant FGFR3 it was 4.6 nM; on human recombinant FGFR4, 13.8 nM; in the experiment on SNU-16 cells it was 3 nM.
As for `C=CC(=O)Nc1ccc(CCn2c(=O)c(-c3c(Cl)c(OC)cc(OC)c3Cl)cc3cnc(NC)nc32)cc1` [Example 4, N-(4-(2-(6-(2,6-dichloro-3,5-dimethoxyphenyl)-2-(methylamino)-7-oxopyrido[2,3-d]pyrimidin-8(7H)-yl)ethyl)phenyl)acrylamide], the IC50 worked out at 1.3 nM on human recombinant FGFR1; 1.6 nM at human recombinant FGFR2; 3.1 nM at human recombinant FGFR3; 10.4 nM at human recombinant FGFR4; 1.4 nM in the experiment on SNU-16 cells.
The matching figures for `C=CC(=O)Nc1ccc(CCn2c(=O)c(-c3c(Cl)c(OC)cc(OC)c3Cl)cc3cnc(NCC(C)(C)O)nc32)cc1` [Example 64, N-(4-(2-(6-(2,6-dichloro-3,5-dimethoxyphenyl)-2-((2-hydroxy-2-methylpropyl)-amino)-7-oxopyrido[2,3-d]pyrimidin-8(7H)-yl)ethyl)phenyl)acrylamide]: 0.5 nM, 2.2 nM, 5.5 nM, 19.9 nM and 3.2 nM.
The matching figures for `C=CC(=O)Nc1ccc(CCn2c(=O)c(-c3cc(OC)cc(OC)c3F)cc3cnc(NCCN4CCOCC4)nc32)cc1` [Example 43, N-(4-(2-(6-(2-fluoro-3,5-dimethoxyphenyl)-2-((2-morpholinoethyl)amino)-7-oxopyrido[2,3-d]pyrimidin-8(7H)-yl)ethyl)phenyl)acrylamide]: 2 nM, 2.6 nM, 9.6 nM, 71 nM and 3.7 nM.
The matching figures for `C=CC(=O)Nc1ccc(CCn2c(=O)c(-c3c(Cl)c(OC)cc(OC)c3Cl)cc3cnc(NCCN4CCOCC4)nc32)nc1` [Example 51, N-(6-(2-(6-(2,6-dichloro-3,5-dimethoxyphenyl)-2-(2-morpholinoethylamino)-7-oxopyrido[2,3-d]pyrimidin-8(7H)-yl)ethyl)pyridin-3-yl)acrylamide]: 1.8 nM, 4.2 nM, 5.4 nM, 12.8 nM and 2.4 nM.
In the case of `C=CC(=O)Nc1ccc(CCn2c(=O)c(-c3cc(OC)cc(OC)c3Cl)cc3cnc(NCCN4CCOCC4)nc32)nc1` [Example 39, N-(6-(2-(6-(2-chloro-3,5-dimethoxyphenyl)-2-((2-morpholinoethyl)amino)-7-oxopyrido[2,3-d]pyrimidin-8(7H)-yl)ethyl)pyridin-3-yl)acrylamide], the IC50 is 0.9 nM on human recombinant FGFR1; 5.5 nM on human recombinant FGFR2; 5.4 nM at human recombinant FGFR3; 42 nM on human recombinant FGFR4; 1.2 nM in the experiment on SNU-16 cells.
The like results for `C=CC(=O)Nc1ccc(CCn2c(=O)c(-c3c(Cl)c(OC)cc(OC)c3Cl)cc3cnc(NC4CCN(C)CC4)nc32)cc1` [Example 62, N-(4-(2-(6-(2,6-dichloro-3,5-dimethoxyphenyl)-2-((1-methylpiperidin-4-yl)amino)-7-oxopyrido[2,3-d]pyrimidin-8(7H)-yl)ethyl)phenyl)acrylamide] were, in that order, 0.7 nM, 2 nM, 9.9 nM, 54.1 nM and 2.1 nM.
The matching figures for `C=CC(=O)Nc1ccc(CCn2c(=O)c(-c3c(Cl)c(OC)cc(OC)c3Cl)cc3cnc(NCC(O)CO)nc32)cc1` (stereo not drawn) [Example 63, N-(4-(2-(6-(2,6-dichloro-3,5-dimethoxyphenyl)-2-((2,3-dihydroxypropyl)amino)-7-oxopyrido[2,3-d]pyrimidin-8(7H)-yl)ethyl)phenyl)acrylamide]: 0.7 nM, 0.9 nM, 3.2 nM, 9.7 nM and 3.1 nM.
